Data: paper PMC7388970 (The Cell Surface, 2020)
≈ marks a conversion by molar mass, not a printed value.

Each compound was assayed on J774 cells (assay: MTT assay for cytotoxicity). Settings: Mus musculus, J774, 24 h, read-out: J-774 (IC50).
Format: cell-based
In the case of `COc1ccc(C=CC(=O)c2ccccc2)cc1OC` [Compound 1a, 3-(3,4-Dimethoxyphenyl)-1-phenylprop-2-en-1-one], the IC50 was 50 µg/mL (≈ 186 µM).
In the case of `COc1ccc(C=CC(=O)c2cccc(Br)c2)cc1OC` [Compound 1b, 1-(3-Bromophenyl)-3-(3,4-dimethoxyphenyl)prop-2-en-1-one], the IC50 was 25 µg/mL (≈ 72 µM).
With `COc1ccc(C=CC(=O)c2ccccc2Br)cc1OC` [Compound 1c, 1-(2-Bromophenyl)-3-(3,4-dimethoxyphenyl)prop-2-en-1-one] the IC50 was 25 µg/mL (≈ 72 µM).
Work on `COc1ccc(C=CC(=O)c2ccc(Br)cc2)cc1OC` [Compound 1d, 1-(4-Bromophenyl)-3-(3,4-dimethoxyphenyl)prop-2-en-1-one] yielded an IC50 of 25 µg/mL (≈ 72 µM).
`COc1ccc(C=CC(=O)c2cccc(Cl)c2)cc1OC` [Compound 1e, 1-(3-Chlorophenyl)-3-(3,4-dimethoxyphenyl)prop-2-en-1-one] gave an IC50 of 12.5 µg/mL (≈ 41.3 µM).
`COc1ccc(C=CC(=O)c2ccccc2Cl)cc1OC` [Compound 1f, 1-(2-Chlorophenyl)-3-(3,4-dimethoxyphenyl)prop-2-en-1-one] gave an IC50 of 12.5 µg/mL (≈ 41.3 µM).
`COc1ccc(C=CC(=O)c2ccc(Cl)cc2)cc1OC` [Compound 1g, 1-(4-Chlorophenyl)-3-(3,4-dimethoxyphenyl)prop-2-en-1-one] was tested, and the IC50 was 12.5 µg/mL (≈ 41.3 µM).
`COc1ccc(C=CC(=O)c2ccc(C)cc2)cc1OC` [Compound 1j, 3-(3,4-Dimethoxyphenyl)-1-(p-tolyl)prop-2-en-1-one] gave an IC50 of 25 µg/mL (≈ 88.5 µM).
In the case of `COc1ccc(C=CC(=O)c2ccc(-c3ccccc3)cc2)cc1OC` [Compound 1k, 1-([1,1'-Biphenyl]-4-yl)-3-(3,4-dimethoxyphenyl)prop-2-en-1-one], the IC50 was 25 µg/mL (≈ 72.6 µM).
`COc1ccc(C=CC(=O)c2ccccc2C)cc1OC` [Compound 1m, 3-(3,4-Dimethoxyphenyl)-1-(o-tolyl)prop-2-en-1-one] showed an IC50 of 25 µg/mL (≈ 88.5 µM).
For `COc1ccc(C=CC(=O)c2ccc([N+](=O)[O-])cc2)cc1OC` [Compound 1n, 3-(3,4-Dimethoxyphenyl)-1-(4-nitrophenyl)prop-2-en-1-one], the IC50 was 50 µg/mL (≈ 160 µM).

The compounds below were run on Mycobacterium bovis BCG cells (assay: not given). Settings: not given.
Format: cell-based
For `COc1ccc(C=CC(=O)c2ccccc2)cc1OC` [Compound 1a, 3-(3,4-Dimethoxyphenyl)-1-phenylprop-2-en-1-one], the “proportion of cells showing morphological changes” value was 76%.

What follows are compounds tested on mycolic acid biosynthesis in M. bovis BCG (assay: not given). Settings: not given.
Format: cell-based, Mycobacterium bovis BCG
`COc1ccc(C=CC(=O)c2ccccc2)cc1OC` [Compound 1a, 3-(3,4-Dimethoxyphenyl)-1-phenylprop-2-en-1-one] was tested, and the FAMEs was “accumulation of FAMEs in a dose-dependent manner” and the “production of α- and k-MAMEs” value was “dose-dependent decrease”.
